This note sets out measurements from ChEMBL document CHEMBL1687839, “ISAba825, a functional insertion sequence modulating genomic plasticity and bla(OXA-58) expression in Acinetobacter baumannii” (2011).

What is called MIC is the lowest concentration that inhibits growth of the organism.

Assay type in all cases: functional
Experiment [1] has as its system Acinetobacter baumannii. The experiment can be described thus: Antibacterial activity against Acinetobacter baumannii ATCC 17978 harboring plasmid directed expression of beta-lactamase OXA-58 under an ISAba3 promoter.
Experiment [2] has as its system Acinetobacter baumannii. The experiment can be described thus: Antibacterial activity against Acinetobacter baumannii ATCC 17978 harboring pAB880.
Experiment [3] has as its system Acinetobacter baumannii. The experiment can be described thus: Antibacterial activity against Acinetobacter baumannii ATCC 17978 harboring plasmid directed expression of beta-lactamase OXA-58 under an ISAba825-ISAba3 hybrid and ISAba3-derived promoter sequence.
Experiment [4] concerns Acinetobacter baumannii. The experiment can be described thus: Ratio of MIC for Acinetobacter baumannii ATCC 17978 harboring plasmid pWHP825 to MIC for Acinetobacter baumannii ATCC 17978 harboring plasmid 1266.
The subject of experiment [5] is Acinetobacter baumannii. The experiment can be described thus: Antibacterial activity against Acinetobacter baumannii ATCC 17978 harboring plasmid 1266.
Experiment [6] deals with Acinetobacter baumannii. The experiment can be described thus: Antibacterial activity against Acinetobacter baumannii Ab880 overexpressing beta-lactamase OXA-58 under the control of ISAba825 insertion sequence.
For experiment [7], the system named is Acinetobacter baumannii. The experiment can be described thus: Antibacterial activity against Acinetobacter baumannii ATCC 17978.

Values after ≈ are worked out from the molar mass of the structure shown.

On to `C[C@@H](O)[C@H]1C(=O)N2C(C(=O)O)=C(SCCNC=N)C[C@H]12` [IMIPENEM ANHYDROUS], for which the MIC came out at 0.5 µg/mL (≈ 1.67 µM) with Acinetobacter baumannii [1]; 16 µg/mL (≈ 53.4 µM) against Acinetobacter baumannii [2]; 32 µg/mL (≈ 107 µM) against Acinetobacter baumannii [3]; 0.25 µg/mL (≈ 0.835 µM) in the experiment with Acinetobacter baumannii [5]; 16 µg/mL (≈ 53.4 µM) against Acinetobacter baumannii [6]; 0.25 µg/mL (≈ 0.835 µM) against Acinetobacter baumannii [7]. Further, the Ratio in the experiment on Acinetobacter baumannii [4] turned out to be 128.

Consider `C[C@@H](O)[C@H]1C(=O)N2C(C(=O)O)=C(S[C@@H]3CN[C@H](C(=O)N(C)C)C3)[C@H](C)[C@H]12` [MEROPENEM], for which the MIC in the experiment with Acinetobacter baumannii [1] was 0.5 µg/mL (≈ 1.3 µM); against Acinetobacter baumannii [2], 8 µg/mL (≈ 20.9 µM); against Acinetobacter baumannii [3] it was 16 µg/mL (≈ 41.7 µM); against Acinetobacter baumannii [5] it was 0.25 µg/mL (≈ 0.652 µM); with Acinetobacter baumannii [6] it was 16 µg/mL (≈ 41.7 µM); in the experiment on Acinetobacter baumannii [7], 0.25 µg/mL (≈ 0.652 µM). In the experiment with Acinetobacter baumannii [4], the Ratio is 64.
